Reference: PubChem BioAssay (NCI)
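1) Cells in 96-well plates. 2) Compound, 48 h, 5 concentrations. 3) Linear interpolation between surrounding doses. 4) Unreached endpoint = highest concentration. TGI is the concentration that stops growth completely.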

Experiments:
Assay in all cases: inhibition of tumour cell growth, NCI panel, 48 h
[1] = system: 786-0 renal
[2] = system: A498 renal
[3] = system: A549 NSCLC
[4] = system: ACHN renal
[5] = system: BT-549 breast
[6] = system: CAKI-1 renal
[7] = system: CCRF-CEM leukemia
[8] = system: COLO 205 colon
[9] = system: DU-145 prostate
[10] = system: EKVX NSCLC
[11] = system: HCC-2998 colon
[12] = system: HCT-116 colon
[13] = system: HCT-15 colon
[14] = system: HL-60(TB) leukemia
[15] = system: HOP-62 NSCLC
[16] = system: HOP-92 NSCLC
[17] = system: HS 578T breast
[18] = system: HT29 colon
[19] = system: IGROV1 ovarian
[20] = system: K-562 leukemia
[21] = system: KM12 colon
[22] = system: LOX IMVI melanoma
[23] = system: M14 melanoma
[24] = system: MALME-3M melanoma
[25] = system: MCF7 breast
[26] = system: MDA-MB-231 breast
[27] = system: MDA-MB-435
[28] = system: MOLT-4 leukemia
[29] = system: NCI-H226 lung
[30] = system: NCI-H23 lung
[31] = system: NCI-H460 lung
[32] = system: NCI-H522 lung
[33] = system: NCI/ADR-RES ovarian
[34] = system: OVCAR-3 ovarian
[35] = system: OVCAR-4 ovarian
[36] = system: OVCAR-5 ovarian
[37] = system: OVCAR-8 ovarian
[38] = system: PC-3 prostate
[39] = system: RPMI-8226 leukemia
[40] = system: RXF 393 renal
[41] = system: SF-268 CNS
[42] = system: SF-295 CNS
[43] = system: SF-539 CNS
[44] = system: SK-MEL-2 melanoma
[45] = system: SK-MEL-28 melanoma
[46] = system: SK-MEL-5 melanoma
[47] = system: SK-OV-3 ovarian
[48] = system: SN12C renal
[49] = system: SNB-19 CNS
[50] = system: SNB-75 CNS
[51] = system: SR leukemia
[52] = system: SW-620 colon
[53] = system: T-47D breast
[54] = system: TK-10 renal
[55] = system: U251 CNS
[56] = system: UACC-257 melanoma
[57] = system: UACC-62 melanoma
[58] = system: UO-31 renal

C=C1C(=O)O[C@H]2[C@H]3O[C@@H](C[C@@H]12)[C@](C)(O)CC[C@@H]1O[C@@]1(C)CCC[C@H]3C
TGI [1]: 33.9 µM | TGI [2]: 73.2 µM | TGI [3]: > 100 µM | TGI [4]: 31.4 µM | TGI [5]: 31.5 µM | TGI [6]: 27.6 µM | TGI [7]: 58.2 µM | TGI [8]: 30 µM | TGI [9]: 33.4 µM | TGI [10]: 54.6 µM | TGI [11]: 55.5 µM | TGI [12]: 27.8 µM | TGI [13]: 37.9 µM | TGI [14]: > 100 µM | TGI [15]: > 100 µM | TGI [16]: 36.4 µM | TGI [17]: > 100 µM | TGI [18]: 68.6 µM | TGI [19]: 46.2 µM | TGI [20]: > 100 µM | TGI [21]: 57.3 µM | TGI [22]: 35.7 µM | TGI [23]: 29.3 µM | TGI [24]: 31 µM | TGI [25]: 50.9 µM | TGI [26]: 65.8 µM | TGI [27]: 42.2 µM | TGI [28]: > 100 µM | TGI [29]: 60 µM | TGI [30]: 41.7 µM | TGI [31]: 89 µM | TGI [32]: 34.6 µM | TGI [33]: > 100 µM | TGI [34]: 46.6 µM | TGI [35]: 51.8 µM | TGI [36]: > 100 µM | TGI [37]: 47.5 µM | TGI [38]: > 100 µM | TGI [39]: > 100 µM | TGI [40]: 26.9 µM | TGI [41]: 34.2 µM | TGI [42]: > 100 µM | TGI [43]: 53.7 µM | TGI [44]: 43.6 µM | TGI [45]: > 100 µM | TGI [46]: 33.5 µM | TGI [47]: > 100 µM | TGI [48]: 65.2 µM | TGI [49]: > 100 µM | TGI [50]: 96.1 µM | TGI [51]: > 100 µM | TGI [52]: 42.1 µM | TGI [53]: 82.4 µM | TGI [54]: 32.6 µM | TGI [55]: 84.5 µM | TGI [56]: 89.6 µM | TGI [57]: 33.2 µM | TGI [58]: 69.3 µM

O=[N+]([O-])c1cccnc1-n1cnc2ccccc21
TGI [1]: > 100 µM | TGI [2]: > 100 µM | TGI [3]: > 100 µM | TGI [5]: > 100 µM | TGI [6]: > 100 µM | TGI [7]: > 100 µM | TGI [8]: > 100 µM | TGI [9]: > 100 µM | TGI [10]: > 100 µM | TGI [11]: > 100 µM | TGI [12]: > 100 µM | TGI [13]: > 100 µM | TGI [14]: > 100 µM | TGI [15]: > 100 µM | TGI [16]: > 100 µM | TGI [17]: > 100 µM | TGI [18]: > 100 µM | TGI [19]: > 100 µM | TGI [20]: > 100 µM | TGI [21]: > 100 µM | TGI [22]: > 100 µM | TGI [23]: > 100 µM | TGI [24]: > 100 µM | TGI [25]: > 100 µM | TGI [26]: > 100 µM | TGI [27]: > 100 µM | TGI [28]: > 100 µM | TGI [29]: > 100 µM | TGI [31]: > 100 µM | TGI [33]: > 100 µM | TGI [34]: > 100 µM | TGI [35]: > 100 µM | TGI [36]: > 100 µM | TGI [37]: > 100 µM | TGI [38]: > 100 µM | TGI [39]: > 100 µM | TGI [40]: > 100 µM | TGI [41]: > 100 µM | TGI [42]: > 100 µM | TGI [43]: > 100 µM | TGI [44]: > 100 µM | TGI [45]: > 100 µM | TGI [46]: > 100 µM | TGI [47]: > 100 µM | TGI [50]: > 100 µM | TGI [51]: > 100 µM | TGI [52]: > 100 µM | TGI [53]: > 100 µM | TGI [54]: > 100 µM | TGI [55]: > 100 µM | TGI [56]: > 100 µM | TGI [57]: > 100 µM
